In ChEMBL document CHEMBL6134788, “Development of naphthalimide hydrazide derivatives as potent antibacterial agents against carbapenem-resistant A. baumannii” (RSC Med Chem, 2024):
Active and inactive are the calls of the source.

What was measured:
[1] = system: Acinetobacter baumannii; test: Antibacterial activity against carbapenem-resistant Acinetobacter baumannii BAA 1605 assessed as inhibition of bacterial growth by measuring fractional inhibitory concentration incubated 24 hrs in presence of amikacin by checkerboard method; assay type: functional
[2] = system: Acinetobacter baumannii; test: Antibacterial activity against multi-drug resistant Acinetobacter baumannii 5-189 assessed as inhibition of bacterial growth incubated for 16 to 18 hrs by CLSI protocol based method; assay type: functional; conditions: time 16-18 hrs, read-out: MIC100
[3] = system: Acinetobacter baumannii; test: Antibacterial activity against multi-drug resistant Acinetobacter baumannii clinical isolate 12 assessed as inhibition of bacterial growth incubated for 16 to 18 hrs by CLSI protocol based method; assay type: functional; conditions: time 16-18 hrs, read-out: MIC100
[4] = system: Klebsiella pneumoniae; test: Antibacterial activity against Klebsiella pneumoniae BAA 1705 assessed as inhibition of bacterial growth incubated for 16 to 18 hrs by CLSI protocol based method; assay type: functional; conditions: time 16-18 hrs, read-out: MIC100
[5] = system: Acinetobacter baumannii; test: Antibacterial activity against multi-drug resistant Acinetobacter baumannii clinical isolate 4 assessed as inhibition of bacterial growth incubated for 16 to 18 hrs by CLSI protocol based method; assay type: functional; conditions: time 16-18 hrs, read-out: MIC100
[6] = system: Acinetobacter baumannii; test: Synergistic antibacterial activity against carbapenem-resistant Acinetobacter baumannii BAA 1605 assessed as inhibition of bacterial growth incubated 24 hrs in presence of tobramycin by checkerboard method; assay type: functional
[7] = system: Acinetobacter baumannii; test: Antibacterial activity against carbapenem-resistant Acinetobacter baumannii BAA 1605 assessed as amikacin MIC by measuring fractional inhibitory concentration incubated 24 hrs by checkerboard method relative to amikacin alone; assay type: functional
[8] = system: Acinetobacter baumannii; test: Synergistic antibacterial activity against carbapenem-resistant Acinetobacter baumannii BAA 1605 assessed as inhibition of bacterial growth by measuring fractional inhibitory concentration incubated 24 hrs in presence of tobramycin by checkerboard method; assay type: functional
[9] = system: Acinetobacter baumannii; test: Antibacterial activity against multi-drug resistant Acinetobacter baumannii WL-136 assessed as inhibition of bacterial growth incubated for 16 to 18 hrs by CLSI protocol based method; assay type: functional; conditions: time 16-18 hrs, read-out: MIC100
[10] = system: Acinetobacter baumannii; test: Antibacterial activity against multi-drug resistant Acinetobacter baumannii 5-143 assessed as inhibition of bacterial growth incubated for 16 to 18 hrs by CLSI protocol based method; assay type: functional; conditions: time 16-18 hrs, read-out: MIC100
[11] = system: Acinetobacter baumannii; test: Antibacterial activity against carbapenem-resistant Acinetobacter baumannii BAA 1605 assessed as inhibition of bacterial growth incubated for 16 to 18 hrs by CLSI protocol based method; assay type: functional; conditions: time 16-18 hrs, read-out: MIC100
[12] = system: Acinetobacter baumannii; test: Antibacterial activity against multi-drug resistant Acinetobacter baumannii clinical isolate 6 assessed as inhibition of bacterial growth incubated for 16 to 18 hrs by CLSI protocol based method; assay type: functional; conditions: time 16-18 hrs, read-out: MIC100
[13] = system: Acinetobacter baumannii; test: Antibacterial activity against multi-drug resistant Acinetobacter baumannii clinical isolate 8 assessed as inhibition of bacterial growth incubated for 16 to 18 hrs by CLSI protocol based method; assay type: functional; conditions: time 16-18 hrs, read-out: MIC100
[14] = system: Acinetobacter baumannii; test: Antibacterial activity against carbapenem-resistant Acinetobacter baumannii BAA 1605 assessed as reduction in bacterial growth incubated for 24 hrs by time-kill kinetics analysis; assay type: functional, organism-based
[15] = system: Escherichia coli; test: Antibacterial activity against Escherichia coli ATCC 25922 assessed as inhibition of bacterial growth incubated for 16 to 18 hrs by CLSI protocol based method; assay type: functional; conditions: time 16-18 hrs, read-out: MIC100
[16] = system: Pseudomonas aeruginosa; test: Antibacterial activity against Pseudomonas aeruginosa ATCC 27853 assessed as inhibition of bacterial growth incubated for 16 to 18 hrs by CLSI protocol based method; assay type: functional; conditions: time 16-18 hrs, read-out: MIC100
[17] = system: Acinetobacter baumannii; test: Antibacterial activity against multi-drug resistant Acinetobacter baumannii 5-109 assessed as inhibition of bacterial growth incubated for 16 to 18 hrs by CLSI protocol based method; assay type: functional; conditions: time 16-18 hrs, read-out: MIC100
[18] = system: Acinetobacter baumannii; test: Antibacterial activity against carbapenem-resistant Acinetobacter baumannii BAA 1605 assessed as inhibition of bacterial growth incubated 24 hrs in presence of minocycline by checkerboard method; assay type: functional
[19] = system: Acinetobacter baumannii; test: Antibacterial activity against carbapenem-resistant Acinetobacter baumannii BAA 1605 assessed as inhibition of bacterial growth incubated 24 hrs in presence of levofloxacin by checkerboard method; assay type: functional
[20] = system: Acinetobacter baumannii; test: Antibacterial activity against carbapenem-resistant Acinetobacter baumannii BAA 1605 assessed as inhibition of bacterial growth incubated 24 hrs in presence of polymyxin B by checkerboard method; assay type: functional
[21] = system: Acinetobacter baumannii; test: Antibacterial activity against multi-drug resistant Acinetobacter baumannii clinical isolate 7 assessed as inhibition of bacterial growth incubated for 16 to 18 hrs by CLSI protocol based method; assay type: functional; conditions: time 16-18 hrs, read-out: MIC100
[22] = system: Acinetobacter baumannii; test: Antibacterial activity against carbapenem-resistant Acinetobacter baumannii BAA 1605 assessed as polymyxin B MIC by measuring fractional inhibitory concentration incubated 24 hrs by checkerboard method relative to polymyxin B alone; assay type: functional
[23] = system: Staphylococcus aureus; test: Antibacterial activity against Staphylococcus aureus ATCC 29213 assessed as inhibition of bacterial growth incubated for 16 to 18 hrs by CLSI protocol based method; assay type: functional; conditions: time 16-18 hrs, read-out: MIC100
[24] = system: Acinetobacter baumannii; test: Antibacterial activity against carbapenem-resistant Acinetobacter baumannii BAA 1605 assessed as inhibition of bacterial growth by measuring minocycline MIC incubated 24 hrs by checkerboard method; assay type: functional
[25] = system: Acinetobacter baumannii; test: Antibacterial activity against multi-drug resistant Acinetobacter baumannii WL-487 assessed as inhibition of bacterial growth incubated for 16 to 18 hrs by CLSI protocol based method; assay type: functional; conditions: time 16-18 hrs, read-out: MIC100
[26] = system: Acinetobacter baumannii; test: Antibacterial activity against multi-drug resistant Acinetobacter baumannii Naval-18 assessed as inhibition of bacterial growth incubated for 16 to 18 hrs by CLSI protocol based method; assay type: functional; conditions: time 16-18 hrs, read-out: MIC100
[27] = Cytotoxicity against African green monkey Vero cells assessed as reduction in cell viability incubated for 72 hrs by MTT assay; assay type: toxicity, cell-based; conditions: chlorocebus sabaeus
[28] = system: Acinetobacter baumannii; test: Antibacterial activity against multi-drug resistant Acinetobacter baumannii clinical isolate 2 assessed as inhibition of bacterial growth incubated for 16 to 18 hrs by CLSI protocol based method; assay type: functional; conditions: time 16-18 hrs, read-out: MIC100
[29] = system: Acinetobacter baumannii; test: Antibacterial activity against carbapenem-resistant Acinetobacter baumannii BAA 1605 assessed as rifampicin MIC by measuring fractional inhibitory concentration incubated 24 hrs by checkerboard method relative to rifampicin alone; assay type: functional
[30] = Selectivity index, ratio of CC50 for cytotoxicity against African green monkey VERO cells to MIC for antibacterial activity against carbapenem-resistant Acinetobacter baumannii BAA 1605 assessed as inhibition of bacterial growth; assay type: toxicity, cell-based; conditions: read-out: Selectivity Index
[31] = system: Acinetobacter baumannii; test: Antibacterial activity against carbapenem-resistant Acinetobacter baumannii BAA 1605 assessed as tobramycin MIC by measuring fractional inhibitory concentration incubated 24 hrs by checkerboard method relative to tobramycin alone; assay type: functional
[32] = system: Acinetobacter baumannii; test: Antibacterial activity against multi-drug resistant Acinetobacter baumannii clinical isolate 1 assessed as inhibition of bacterial growth incubated for 16 to 18 hrs by CLSI protocol based method; assay type: functional; conditions: time 16-18 hrs, read-out: MIC100
[33] = system: Acinetobacter baumannii; test: Antibacterial activity against carbapenem-resistant Acinetobacter baumannii BAA 1605 assessed as inhibition of bacterial growth by measuring polymyxin B MIC incubated 24 hrs by checkerboard method; assay type: functional
[34] = system: Acinetobacter baumannii; test: Antibacterial activity against multi-drug resistant Acinetobacter baumannii Naval-81 assessed as inhibition of bacterial growth incubated for 16 to 18 hrs by CLSI protocol based method; assay type: functional; conditions: time 16-18 hrs, read-out: MIC100
[35] = system: Acinetobacter baumannii; test: Antibacterial activity against multi-drug resistant Acinetobacter baumannii NR-17777 assessed as inhibition of bacterial growth incubated for 16 to 18 hrs by CLSI protocol based method; assay type: functional; conditions: time 16-18 hrs, read-out: MIC100
[36] = system: Acinetobacter baumannii; test: Antibacterial activity against carbapenem-resistant Acinetobacter baumannii BAA 1605 assessed as inhibition of bacterial growth by measuring fractional inhibitory concentration incubated 24 hrs in presence of minocycline by checkerboard method; assay type: functional
[37] = system: Acinetobacter baumannii; test: Antibacterial activity against carbapenem-resistant Acinetobacter baumannii BAA 1605 assessed as inhibition of bacterial growth by measuring fractional inhibitory concentration incubated 24 hrs in presence of levofloxacin by checkerboard method; assay type: functional

O=C(CCN1C(=O)c2cccc3cccc(c23)C1=O)NNc1ccc(Br)cc1
0.5: FIC [7] | FIC [22] | FIC [29]
0.25 µg/mL: MIC [6] | MIC [10] | MIC [20] | MIC [32] | MIC [33]
> 200: selectivity ratio [30]
0.5 µg/mL: MIC [2] | MIC [3] | MIC [5] | MIC [9] | MIC [11] | MIC [12] | MIC [13] | MIC [17] | MIC [21] | MIC [25] | MIC [26] | MIC [28] | MIC [34] | MIC [35]
> 64 µg/mL: MIC [4] | MIC [15] | MIC [16] | MIC [23]
1 µg/mL: MIC [18] | MIC [19]
4 µg/mL: MIC [24]
> 100 µg/mL: CC50 at 72 h [27]
inactive: Activity [14]
1: FIC [36] | FIC [37]
0.25: FIC [1] | FIC [8] | FIC [31]
